Experimental data reported in article PMC9616902, “Chemical space docking enables large-scale structure-based virtual screening to discover ROCK1 kinase inhibitors” (Nature Communications, 2022).
Where two headings read alike, the source gives them in different places.

Biological target: T1, Human ROCK1 protein (amino acids 1–477) (Homo sapiens, UniProt Q13464)
T1 construct: purchased Carna Biosciences 01-109
Test: ROCK1 HTRF KinEASE-STK S2 biochemical activity assay
Conditions: for S0 / Sinf / nHill: curve fit parameter; for Ki: average +/- standard deviation of three measurements, 3 μM ATP
Description: Human ROCK1 protein (amino acids 1–477 from accession number NP_05397.1) was purchased from Carna Biosciences (Cat# 01-109). This sequence contains the catalytic domain of the protein, and the biochemical activity was measured by the HTRF KinEASE-STK S2 Kit (Cisbio, Cat# 62ST2PEB) according to the manufacturer’s protocol. To determine the IC50, compounds were first dispensed by the Echo Liquid Handler (Labcyte) into white 384-well plates (PerkinElmer, Cat# 6008289). A total of 3 μL of 2x ROCK1 enzyme solution was added to the compounds, followed by a 10 min incubation at room temperature. Then, 2x ATP and STK S2 peptide solution were added to initiate the one-hour enzyme reaction at room temperature. The final condition of the reaction was 1.5 nM Rock1, 3 μM ATP, 0.5 μM STK S2 peptide in 50 mM HEPES pH7.2, 10 mM MgCl2, 0.1% BGG, 0.005% Brij-35, 1 mM DTT. The reaction was quenched by adding 6 μL of the detection mixture that contained Streptavidin XL665 and STK Antibody-Cryptate (Cisbio) and incubated for 1 hour at room temperature. The HTRF (665 nm/620 nm) signal was read on the PHERAstar reader (BMG Labtech). All measurements were done in triplicate.

[1] = 2021-01-17 ROCK1 HTRF (n=1) 665/620, no unit printed (values equal the uM IC50 of the 7th table x 1e-6), read-out: qAC50
[2] = 2021-01-17 ROCK1 HTRF (n=1) 665/620 Activity [%]
[3] = 2021-01-18 ROCK1 (n=3) 665/620, no unit printed (values equal the uM IC50 of the 7th table x 1e-6), read-out: qAC50
[4] = 2021-01-18 ROCK1 (n=3) 665/620 Activity [%]
[5] = 2021-01-18 ROCK1 HTRF (n=2) 665/620, no unit printed (values equal the uM IC50 of the 7th table x 1e-6), read-out: qAC50
[6] = 2021-01-18 ROCK1 HTRF (n=2) 665/620 Activity [%]
[7] = Supplementary Figure 4 source data, unit inferred, read-out: hit IC50

T1 sequence (Q13464 1-477): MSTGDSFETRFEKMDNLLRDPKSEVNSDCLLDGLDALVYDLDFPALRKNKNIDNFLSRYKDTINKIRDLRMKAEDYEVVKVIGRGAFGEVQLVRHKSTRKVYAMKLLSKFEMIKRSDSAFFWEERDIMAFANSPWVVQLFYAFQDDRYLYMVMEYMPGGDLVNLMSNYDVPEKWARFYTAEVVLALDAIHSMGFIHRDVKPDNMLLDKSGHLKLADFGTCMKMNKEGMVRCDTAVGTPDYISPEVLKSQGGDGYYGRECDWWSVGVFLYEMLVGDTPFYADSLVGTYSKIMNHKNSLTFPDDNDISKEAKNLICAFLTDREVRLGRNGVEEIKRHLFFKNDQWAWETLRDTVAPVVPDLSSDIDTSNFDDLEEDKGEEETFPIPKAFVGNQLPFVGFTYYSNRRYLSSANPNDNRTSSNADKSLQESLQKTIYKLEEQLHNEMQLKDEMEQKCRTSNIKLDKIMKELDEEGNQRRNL

SMILES	IC50 [1] [µM]	S0 [2] [%]	Sinf [2] [%]	nHill (2021-01-17 ROCK1 HTRF (n=1))	IC50 [3] [µM]	S0 [4] [%]	Sinf [4] [%]	nHill (2021-01-18 ROCK1 (n=3))	IC50 [5] [µM]	S0 [6] [%]	Sinf [6] [%]	nHill (2021-01-18 ROCK1 HTRF (n=2))	IC50 [7] [µM]	Ki [nM]
CC(NC(=O)c1ccc(-c2cn[nH]c2)cc1)C1CC1c1ccccc1 (mixture of isomers) [Compound 6]	0.248	0.4458	-96.8224	1.0903	0.14	-2.655	-93.6754	1.532	0.157	3.31	-94.0095	1.2951	0.182	87 ± 28
CC(Cc1ccc(F)cc1F)NC(=O)c1ccc(-c2cn[nH]c2)cc1 (racemic) [Compound 3]	0.22	1.865	-99.1673	1.058	0.121	-2.06	-95.7048	1.245	0.136	-2.159	-97.6218	1.01	0.159	76 ± 26
CC(CNC(=O)c1ccc(-c2cn[nH]c2)cc1)N1CCc2ccccc21 (stereo not drawn) [Compound 2]	0.108	-2.075	-98.9577	1.042	0.101	1.158	-99.9466	0.9439	0.1	-0.7898	-98.8967	0.9788	0.103	49 ± 2

Other lines, results leading:

IC50 [1] [µM]	S0 [2] [%]	Sinf [2] [%]	nHill (2021-01-17 ROCK1 HTRF (n=1))	IC50 [3] [µM]	S0 [4] [%]	Sinf [4] [%]	nHill (2021-01-18 ROCK1 (n=3))	IC50 [5] [µM]	S0 [6] [%]	Sinf [6] [%]	nHill (2021-01-18 ROCK1 HTRF (n=2))	IC50 [7] [µM]	Ki [nM]	SMILES
0.173	3.131	-99.2397	1.067	0.171	-0.4047	-100.142	0.9507	0.17	3.5105	-98.3773	1.136	0.171	82 ± 1	CSc1cccc(F)c1CNC(=O)c1ccc(-c2cn[nH]c2)cc1 [Compound 5]
0.197	-5.337	-98.9033	1.05	0.147	-5.138	-96.0861	1.483	0.15	-6.676	-95.9487	1.644	0.165	79 ± 13	O=C(NCC1(Cc2ccccc2)CC1)c1ccc(-c2cn[nH]c2)cc1 [Compound 4]
0.0793	-0.5714	-100.2	1.046	0.0806	-1.802	-99.1388	1.109	0.0814	-5.692	-99.1049	1.139	0.08	38 ± 1	COCc1cccc(CC(=O)Nc2ccc(-c3cn[nH]c3)cc2)c1 [Compound 1]
